This note sets out measurements from ChEMBL document CHEMBL3098052, “Chemical synthesis and tyrosinase inhibitory activity of rhododendrol glycosides” (Bioorg Med Chem Lett, 2014).

Broadly, the IC50 is the midpoint of a concentration-inhibition curve.

The structures appear in SMILES notation.

The target of one assay is T1, Tyrosinase (Agaricus bisporus) (UniProt O42713).
T1 sequence (whole entry): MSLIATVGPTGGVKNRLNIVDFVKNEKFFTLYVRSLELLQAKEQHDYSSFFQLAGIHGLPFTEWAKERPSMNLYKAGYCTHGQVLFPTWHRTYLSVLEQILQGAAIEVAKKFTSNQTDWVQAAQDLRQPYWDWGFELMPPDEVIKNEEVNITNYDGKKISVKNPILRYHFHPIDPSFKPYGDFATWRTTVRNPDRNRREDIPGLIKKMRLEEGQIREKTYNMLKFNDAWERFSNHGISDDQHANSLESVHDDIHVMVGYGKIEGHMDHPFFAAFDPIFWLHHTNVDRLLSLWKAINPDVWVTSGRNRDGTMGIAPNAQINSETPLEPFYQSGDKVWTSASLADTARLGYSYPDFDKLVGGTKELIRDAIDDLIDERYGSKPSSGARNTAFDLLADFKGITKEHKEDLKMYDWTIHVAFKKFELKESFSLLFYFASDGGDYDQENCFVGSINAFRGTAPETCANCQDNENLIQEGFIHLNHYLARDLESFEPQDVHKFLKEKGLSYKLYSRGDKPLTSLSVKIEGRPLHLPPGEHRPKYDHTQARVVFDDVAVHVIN
Nature of the assay: Ratio of kojic acid IC50 to compound IC50 for mushroom tyrosinase.
On to `C[C@H](CCc1ccc(O)cc1O)O[C@@H]1O[C@H](CO)[C@@H](O[C@@H]2O[C@H](CO)[C@@H](O)[C@H](O)[C@H]2O)[C@H](O)[C@H]1O`, for which the Ratio IC50 is 6.

The next assay concerns the target T2, Tyrosinase (Agaricus bisporus, UniProt O42713).
T2 sequence (O42713 whole entry): T1 sequence (whole entry)
The assay is described as follows: Inhibition of mushroom tyrosinase using L-DOPA as substrate assessed as dopachrome formation after 5 mins by spectrophotometry.
Turning to `C[C@H](CCc1ccc(O)cc1O)O[C@@H]1O[C@H](CO)[C@@H](O[C@@H]2O[C@H](CO)[C@@H](O)[C@H](O)[C@H]2O)[C@H](O)[C@H]1O`, the IC50 came to 1510 nM. With `CCCCCCc1ccc(O)cc1O` [HEXYLRESORCINOL], the IC50 is 560 nM.

For the compound `C[C@@H](CCc1ccc(O)cc1O)O[C@@H]1O[C@H](CO)[C@@H](O[C@@H]2O[C@H](CO)[C@@H](O)[C@H](O)[C@H]2O)[C@H](O)[C@H]1O`, the IC50 worked out at 3830 nM. As to `C[C@@H](CCc1ccc(O)cc1O)O[C@@H]1OC[C@@H](O)[C@H](O)[C@H]1O`, the IC50 amounted to 4560 nM. In the case of `C[C@H](CCc1ccc(O)cc1O)O[C@@H]1OC[C@@H](O)[C@H](O)[C@H]1O`, the IC50 was 1720 nM.

As to `C[C@H](CCc1ccc(O)cc1O)O[C@@H]1O[C@H](CO)[C@@H](O)[C@H](O)[C@H]1O`, the IC50 amounted to 2300 nM. On the same count and under the same terms, the value for `C[C@@H](CCc1ccc(O)cc1O)O[C@@H]1O[C@H](CO)[C@@H](O)[C@H](O)[C@H]1O` was 4720 nM.
